Tested on: hypoxia-inducible endogenous VEGF expression in HeLa cells
Experiment: Hypoxia-inducible endogenous VEGF expression, VEGF ELISA of conditioned media (dose-response EC50)
Assay type: cell-based
In short: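 HeLa cells were cultured 24-48 h under hypoxia (1% O2, 5% CO2, balance N2) with or without compound. Conditioned-media VEGF protein was measured by ELISA against a standard curve. EC50 and CC50 come from percentage-inhibition curves over, e.g., seven concentrations, with maximal inhibition set at 100%.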

[1] = Homo sapiens, HeLa cells, hypoxic conditions (1% O2)
[2] = Homo sapiens, HeLa cells under hypoxic conditions
[3] = Homo sapiens, HeLa cells, hypoxic conditions (1% O2, 5% CO2)

Structure (SMILES) | EC50 [2] | further results
O=C(Oc1ccc(F)cc1)N1CCc2c([nH]c3ccc(Cl)cc23)C1c1ccc(OCCCCCCNCCO)cc1 (stereo not shown) [Compound 772] | – | EC50 [1]: < 8 nM
CCOC(=O)N1CCc2c([nH]c3ccc(Cl)cc23)C1c1cccc(F)c1F (stereo not shown) [Compound 5] | < 8 nM | –
O=C(Oc1ccccc1)N1CCc2c([nH]c3ccc(Cl)cc23)C1c1ccccc1 (stereo not shown) [Compound 121] | 8 to 40 nM | –
Clc1ccc2[nH]c3c(c2c1)CCN(Cc1ccccc1)C3c1ccc2c(c1)OCO2 (stereo not shown) [Compound 176] | 200 to 1000 nM | –
O=C(Oc1ccc(F)cc1)N1CCc2c([nH]c3ccc(Cl)cc23)C1c1ccc(OCCn2cncn2)cc1 (stereo not shown) [Compound 834] | – | EC50 [3]: 8 to 40 nM
O=C(Oc1ccc(F)cc1)N1CCc2c([nH]c3ccc(Cl)cc23)C1c1ccc(OCCCn2ccnc2)cc1 (stereo not shown) [Compound 994] | – | EC50 (HeLa cells, hypoxic conditions (1% O2, 5% CO2)): < 8 nM
COc1ccc(C2NC(C(=O)NC3CCCCC3)Cc3c2[nH]c2ccc(Br)cc32)cc1 (stereo not shown) [Compound 245] | > 1000 nM | –
O=C(OCCCl)N1CCc2c([nH]c3ccc(Cl)cc23)C1c1ccc(Cl)cc1 (stereo not shown) [Compound 55] | 8 to 40 nM | –
CCOC(=O)N1CCc2c([nH]c3ccc(Cl)cc23)C1c1ccc(C(=O)NCCN2CCOCC2)cc1 (stereo not shown) [Compound 509] | – | EC50 [1]: 40 to 200 nM
COc1ccc(OC(=O)N2CCc3c([nH]c4ccc(Cl)cc34)C2c2ccc(OCC3CCCN(C)C3)cc2)cc1 (stereo not shown) [Compound 981] | – | EC50 [3]: 40 to 200 nM
CCOC(=O)N1CCc2c([nH]c3ccc(Br)cc23)C1c1ccc(OC)cc1 (stereo not shown) [Compound 112] | < 8 nM | –
CCOC(=O)N1CCc2c([nH]c3ccc(Cl)cc23)C1c1ccc(C(=O)N2CCN(CC)CC2)cc1 (stereo not shown) [Compound 473] | – | EC50 [1]: 40 to 200 nM
O=C(Oc1ccc(F)cc1)N1CCc2c([nH]c3ccc(Cl)cc23)C1c1ccc(OCCn2cccn2)cc1 (stereo not shown) [Compound 836] | – | EC50 [3]: 8 to 40 nM
COC(=O)N1CCc2c([nH]c3ccc(OCc4ccccc4)cc23)C1c1ccccc1 (stereo not shown) [Compound 293] | > 1000 nM | –
CC(CC1NCCc2c1[nH]c1ccc(Cl)cc21)c1ccccc1 (stereo not shown) [Compound 532] | – | EC50 [1]: 200 to 1000 nM
O=C(Oc1ccc(F)cc1)N1CCc2c([nH]c3ccc(Cl)cc23)C1c1ccc(OCCCCCCn2ccnc2)cc1 (stereo not shown) [Compound 780] | – | EC50 [1]: < 8 nM
CCOC(=O)N1CCc2c([nH]c3ccc(Cl)cc23)C1c1ccc(C(=O)N2CCC(NC(C)=O)C2)cc1 (stereo not shown) [Compound 561] | – | EC50 [1]: > 1000 nM
COc1ccc(C2c3[nH]c4ccc(Br)cc4c3CCN2O)cc1 (stereo not shown) [Compound 110] | 8 to 40 nM | –
CC(C)OC(=O)N1CCc2c([nH]c3ccc(Cl)cc23)C1c1ccccc1 (stereo not shown) [Compound 101] | 8 to 40 nM | –
COc1ccc(C2c3[nH]c4ccc(C)cc4c3CCN2C(=O)Oc2ccc(Cl)cc2)cc1 (stereo not shown) [Compound 341] | 40 to 200 nM | –
CCC1NCCc2c1[nH]c1ccc(Cl)cc21 (stereo not shown) [Compound 298] | > 1000 nM | –
CC(=O)N1CCN(CC(O)COc2ccc(C3c4[nH]c5ccc(Cl)cc5c4CCN3C(=O)Oc3ccc(Cl)cc3)cc2)CC1 (stereo not shown) [Compound 415] | – | EC50 [1]: < 8 nM
COc1ccc(C2c3[nH]c4ccc(F)cc4c3CCN2C(=S)NC2CCCCC2)cc1 (stereo not shown) [Compound 242] | > 1000 nM | –
O=C(Oc1ccc(Cl)cc1)N1CCc2c([nH]c3ccc(Cl)cc23)C1c1ccc(OCCCCl)cc1 (stereo not shown) [Compound 921] | – | EC50 [3]: < 8 nM
CCOC(=O)N1CCc2c([nH]c3ccc(Cl)cc23)C1c1ccc(OCCOCCOC)cc1 (stereo not shown) [Compound 404] | – | EC50 [1]: < 8 nM
CCOC(=O)N1CCc2c([nH]c3ccc(Cl)cc23)C1c1ccc(C(=O)N(C)CCCN(C)C)cc1 (stereo not shown) [Compound 558] | – | EC50 [1]: 200 to 1000 nM
Clc1ccc2[nH]c3c(c2c1)CCN(Cc1ccccc1)C3c1c[nH]c2ccc(Br)cc12 (stereo not shown) [Compound 273] | > 1000 nM | –

Structure (SMILES) | EC50 [2] | further results
COCCNC(=S)N1CCc2c([nH]c3ccccc23)C1c1ccc(OC)cc1 (stereo not shown) [Compound 290] | > 1000 nM | –
Cc1ccc(C2NCCc3c2[nH]c2ccc(Cl)cc32)cc1 (stereo not shown) [Compound 193] | 200 to 1000 nM | –
Clc1ccc2[nH]c3c(c2c1)CCNC3c1cccs1 (stereo not shown) [Compound 310] | > 1000 nM | –
Clc1ccc2[nH]c3c(c2c1)CCNC3c1ccc(OCCN2CCOCC2)cc1 (stereo not shown) [Compound 363] | > 1000 nM | –
CCOC(=O)N1CCc2c([nH]c3ccc(Br)cc23)C1c1ccc(CN2CCN(C)CC2)cc1 (stereo not shown) [Compound 474] | – | EC50 [1]: 40 to 200 nM
CCOC(=O)N1CCc2c([nH]c3ccc(Br)cc23)C1c1ccc(C)cc1 (stereo not shown) [#8] | < 8 nM | –
CCOC(=O)N1CCc2c([nH]c3ccc(Cl)cc23)C1c1ccc(C(=O)NCCCn2ccnc2)cc1 (stereo not shown) [Compound 533] | – | EC50 [1]: 200 to 1000 nM
CCOC(=O)N1CCc2c([nH]c3ccc(Br)cc23)C1c1ccc(CN2CCCN(C)CC2)cc1 (stereo not shown) [Compound 541] | – | EC50 [1]: 200 to 1000 nM
CC(C)c1ccc(C2NCCc3c2[nH]c2ccc(Cl)cc32)cc1 (stereo not shown) [Compound 162] | 40 to 200 nM | –
O=C(Oc1ccc(F)cc1)N1CCc2c([nH]c3ccc(Cl)cc23)C1c1ccc(OCCCCCCN2CCCC2)cc1 (stereo not shown) [Compound 773] | – | EC50 [1]: < 8 nM
O=C(Oc1ccc(F)cc1)N1CCc2c([nH]c3ccc(Cl)cc23)C1c1ccc(OCCCCCCCl)cc1 (stereo not shown) [Compound 723] | – | EC50 [1]: < 8 nM
N#Cc1ccc(C2NCCc3c2[nH]c2ccc(Cl)cc32)cc1 (stereo not shown) [Compound 220] | 200 to 1000 nM | –
O=C(Oc1ccc(Cl)cc1)N1CCc2c([nH]c3ccc(Cl)cc23)C1c1ccc(OCCN2CCOCC2)cc1 (stereo not shown) [Compound 331] | > 1000 nM | –
Clc1ccc(C2NCCc3c2[nH]c2ccc(Cl)cc32)cc1 (stereo not shown) [Compound 190] | 200 to 1000 nM | –
CCS(=O)(=O)Nc1ccc(C2c3[nH]c4ccc(Cl)cc4c3CCN2C(=O)Oc2ccc(Cl)cc2)cc1 (stereo not shown) [Compound 958] | – | EC50 [3]: 8 to 40 nM
CCOC(=O)N1CCc2c([nH]c3ccc(Br)cc23)C1c1ccc(C(=O)N2CCN(C)CC2)cc1 (stereo not shown) [Compound 478] | – | EC50 [1]: 40 to 200 nM
CN1CCCC(COc2ccc(C3c4[nH]c5ccc(Cl)cc5c4CCN3C(=O)Oc3ccc(F)cc3)cc2)C1 (stereo not shown) [Compound 932] | – | EC50 [3]: < 8 nM
O=C(Oc1ccc(F)cc1)N1CCc2c([nH]c3ccc(Cl)cc23)C1c1ccc(OCCNc2nccs2)cc1 (stereo not shown) [#837] | – | EC50 [3]: < 8 nM
CCOC(=O)N1CCc2c([nH]c3ccc(Br)cc23)C1c1ccc(C(=O)N2CCCN(C)CC2)cc1 (stereo not shown) [Compound 484] | – | EC50 [1]: 40 to 200 nM
O=C(CN1CCOCC1)Nc1ccc(C2c3[nH]c4ccc(Cl)cc4c3CCN2C(=O)Oc2ccc(Cl)cc2)cc1 (stereo not shown) [Compound 454] | – | EC50 [1]: 8 to 40 nM
CCCOC(=O)N1CCc2c([nH]c3ccc(Cl)cc23)C1c1ccc(C(C)C)cc1 (stereo not shown) [Compound 13] | < 8 nM | –
Cc1ccc(OC(=O)N2CCc3c([nH]c4ccc(Cl)cc34)C2c2ccc(OCC3CCCN(C)C3)cc2)cc1 (stereo not shown) [Compound 951] | – | EC50 [3]: 8 to 40 nM
O=C(Oc1ccc(Cl)cc1)N1CCc2c([nH]c3ccc(Cl)cc23)C1c1ccc(OCCCN2CCCC2)cc1 (stereo not shown) [Compound 429] | – | EC50 [1]: < 8 nM
COC(=O)c1ccc(C2c3[nH]c4ccc(Br)cc4c3CCN2C(=O)Oc2ccccc2Cl)cc1 (stereo not shown) [Compound 593] | – | EC50 [1]: 8 to 40 nM
COCCOCCOc1ccc(C2c3[nH]c4ccc(Cl)cc4c3CCN2C(=O)Oc2ccc([N+](=O)[O-])cc2)cc1 (stereo not shown) [Compound 681] | – | EC50 [1]: 8 to 40 nM
CCOC(=O)N1CCc2c([nH]c3ccc(Cl)cc23)C1c1ccc(C(=O)N(C)CCN(C)C)cc1 (stereo not shown) [Compound 563] | – | EC50 [1]: > 1000 nM
O=C(Oc1ccc(F)cc1)N1CCc2c([nH]c3ccc(Br)cc23)C1c1ccc(C(F)(F)F)cc1 (stereo not shown) [Compound 397] | – | EC50 [1]: < 8 nM

Now from value to compound, other results behind:

EC50 [2] | Structure (SMILES) | further results
40 to 200 nM | Clc1cccc(C2NCCc3c2[nH]c2ccc(Br)cc32)c1 (stereo not shown) [Compound 137] | –
200 to 1000 nM | Clc1ccc(CC2NCCc3c2[nH]c2ccc(Cl)cc32)c(Cl)c1 (stereo not shown) [Compound 222] | –
8 to 40 nM | COC(=O)N1CCc2c([nH]c3ccc(Cl)cc23)C1c1ccccc1 (stereo not shown) [Compound 96] | –
40 to 200 nM | CC(=O)N1CCc2c([nH]c3ccc(Br)cc23)C1c1ccc(Br)cc1 (stereo not shown) [Compound 129] | –
200 to 1000 nM | COCC(=O)N1CCc2c([nH]c3ccc(Cl)cc23)C1c1ccc(OC)cc1 (stereo not shown) [Compound 376] | –
< 8 nM | O=C(OCCCl)N1CCc2c([nH]c3ccc(Cl)cc23)C1c1cccc(F)c1F (stereo not shown) [Compound 6] | –
200 to 1000 nM | CC(C)NC(=O)N1CCc2c([nH]c3ccc(Br)cc23)C1c1cccc(Cl)c1 (stereo not shown) [Compound 199] | –
> 1000 nM | COc1ccc(C2c3[nH]c4ccccc4c3CCN2C(=O)Nc2ccc(C(C)C)cc2)cc1 (stereo not shown) [Compound 304] | –
< 8 nM | CCOC(=O)N1CCc2c([nH]c3ccc(Cl)cc23)C1c1ccc(OCCN2CCOCC2)cc1 (stereo not shown) [Compound 279, 6-Chloro-1-[4-(2-morpholin-4-yl-ethoxy)-phenyl]-1,3,4,9-tetrahydro-b-carboline-2-carboxylic acid ethyl ester] | –
< 8 nM | COC(=O)N1CCc2c([nH]c3ccc(Cl)cc23)C1c1ccc(OC)cc1 (stereo not shown) [Compound 43] | –
< 8 nM | CC(C)OC(=O)N1CCc2c([nH]c3ccc(Cl)cc23)C1c1ccc(C(C)C)cc1 (stereo not shown) [Compound 24] | –
> 1000 nM | Oc1c(F)cccc1C1NCCc2c1[nH]c1ccc(Br)cc21 (stereo not shown) [Compound 380] | –
> 1000 nM | COCCOCC(=O)N1CCc2c([nH]c3ccc(Br)cc23)C1c1ccc(C)cc1 (stereo not shown) [Compound 258] | –
8 to 40 nM | CC(C)OC(=O)N1CCc2c([nH]c3ccc(Cl)cc23)C1c1ccc(Br)cc1 (stereo not shown) [Compound 47] | –
8 to 40 nM | O=C(OCCCl)N1CCc2c([nH]c3ccc(Cl)cc23)C1c1cc(F)cc(F)c1 (stereo not shown) [Compound 83] | –
> 1000 nM | COc1ccc2[nH]c3c(c2c1)CCNC3c1ccc(OCc2ccccc2)cc1 (stereo not shown) [Compound 285] | –
> 1000 nM | Brc1ccc2[nH]c3c(c2c1)CCNC3Cc1ccccc1 (stereo not shown) [Compound 252] | –
< 8 nM | O=C(OCCCl)N1CCc2c([nH]c3ccc(Cl)cc23)C1c1ccc(F)c(F)c1 (stereo not shown) [Compound 35] | –
< 8 nM | Cc1ccc(C2c3[nH]c4ccc(Br)cc4c3CCN2C(=O)Oc2ccc(Cl)cc2)cc1 (stereo not shown) [Compound 353] | –
> 1000 nM | CCOC(=O)N1CCc2c([nH]c3ccc(OCc4ccccc4)cc23)C1c1ccc(OC)cc1 (stereo not shown) [Compound 278] | –
> 1000 nM | Oc1cccc(C2NCCc3c2[nH]c2ccc(Cl)cc32)c1 (stereo not shown) [Compound 291] | –
200 to 1000 nM | CCOC(=O)N1CCc2c([nH]c3ccc(Cl)cc23)C1c1ccc(-n2ccnc2)cc1 (stereo not shown) [Compound 180] | –

— patent US8076352B2, “Administration of carboline derivatives useful in the treatment of cancer and other diseases” (PTC Therapeutics, Inc., priority 2004, dated 2011)
